# Experimental data taken from patent US7851653B2, “Method of creating a solvent-free polymeric silicon-containing quaternary ammonium antimicrobial agent having superior sustained antimicrobial properties” (priority 2005, dated 2010).
# Key:
# E. coli [1] = assay: minimum inhibitory concentration (MIC) using E. coli; format: cell-based; details: Escherichia coli
# Method: Two volumes of 0.01N NH4OH in water were added slowly to one volume of a 42% by weight solution of 3-(trimethoxysilyl) propyldimethyloctadecyl ammonium chloride in methanol while stirring at room temperature. After ten minutes an additional two volumes of 0.01N NH4OH were added, stirring continued for an additional ten minutes. An additional five volumes of 0.1N NH4OH were added and stirred for an additional ten minutes. The methanol and NH4OH were removed by evaporation and the resulting polymer concentrated to 5% (wt/wt) in a rotary evaporator. The solution was dried to a methanol-free dry powder. Infrared and NMR spectroscopy confirmed the resultant powder was a homopolymer of (trimethoxysilyl) propyldimethyloctadecyl ammonium chloride.
# E. coli [2] = assay: ASTM E 2149-01 antimicrobial activity of immobilized agents under dynamic contact conditions (dynamic shake flask test); format: cell-based
# Method: (§1) Antimicrobial testing of the cast PVC films of Example 4 was carried out essentially as described in the ASTM designation E 2149-01 entitled, “Standard test Method for Determining the Antimicrobial Activity of Immobilized Antimicrobial Agents under Dynamic Contact Conditions.” This test is designed to evaluate the antimicrobial properties of materials, which contain active agents that are non-leaching. The method is described briefly below.
# E. coli was grown overnight in rich media in an incubator-shaker at 37° C. while shaking at 300 rpm. After 18 hours of incubation, the bacteria were removed from the incubator and the optical density at 660 nm was measured. The culture was diluted until the optical density corresponds to a bacterial concentration of between 1×10^8 and 3×10^8 Colony Forming Units (CFU) per milliliter. The bacteria were further diluted in phosphate buffer (0.3 mM KPO4 at pH 7.2) such that the working concentration was 1×10^6 to 3×10^6 CFU/mL. Test specimens were added to sterile 15 mL test tubes followed by the addition of 3 mL of the bacterial solution. An aliquot was immediately removed from the flask, serially diluted, and used to inoculate Petri plates containing nutrient agar. The plates were incubated overnight and the concentration of bacteria (CFU/mL) was thus determined. This represents the Time 0 (T0) control. […]
# [3] = carbon tetrachloride (CTC) activity of activated carbon, ASTM Method D3467; format: physicochemical
# Method: Determining whether the impregnation of the carbon with antimicrobial agents had any adverse effect on the adsorption properties of the carbon was accomplished by testing the carbon tetrachloride (CTC) activity of the carbon prior to impregnation and following impregnation with the monomer and polymer forms of the antimicrobial agent. The CTC activity testing was performed by a vendor in accordance with ASTM Method […].
# E. coli [4] = assay: ASTM E2149-01 on treated cotton swatches before and after accelerated laundering AATCC 61-1996; format: cell-based
# Method: as §1
# E. coli was grown overnight in rich media in an incubator-shaker at 37° C. while shaking at 300 rpm. After 18 hours of incubation, the bacteria were removed from the incubator and the optical density at 660 nm was measured. The culture was diluted until the optical density corresponds to a bacterial concentration of between 1×10^8 and 3×10^8 Colony Forming Units (CFU) per milliliter. The bacteria were further diluted in phosphate buffer (0.3 mM KPO4 at pH 7.2) such that the working concentration was 1×10^6 to 3×10^6 CFU/mL. Test specimens were added to sterile 15 mL test tubes followed by the addition of 3 mL of the bacterial solution. An aliquot was immediately removed from the flask, serially diluted, and used to inoculate Petri plates containing nutrient agar. The plates were incubated overnight and the concentration of bacteria (CFU/mL) was thus determined. This represents the Time 0 (T0) control. The tube containing the sample was placed in a shaking incubator at 37° C. and 300 rpm for one hour, at which time another aliquot was taken and tested as above. This is the treated sample (TF). All tests were controlled by the inclusion of a tube that contained an untreated sample and a flask with no sample but with bacteria. […] Log kill is a standard method to establish the ability of antimicrobial agents to destroy microorganisms. A log kill of 5.0 means that 100,000 microorganisms were destroyed on contact with the treated surface. A log kill of 6.0 establishes that 1,000,000 microorganisms were destroyed on contact with the treated surface. A log kill in excess of 5.0 is typically interpreted as an exceptionally active antimicrobial agent.
# Unbleached cotton fabric was treated with various concentration levels of both monomeric 3-(trimethoxysilyl) propyldimethyloctadecyl ammonium chloride and the homopolymer of 3-(trimethoxysilyl) propyldimethyloctadecyl ammonium chloride as prepared in Example 2. In all cases 2 inch (5.1 cm) by 2 inch (5.1 cm) swatches of fabric were treated by immersing them in an aqueous solution containing the respective concentration of monomeric or polymeric 3-(trimethoxysilyl) propyldimethyloctadecyl ammonium chloride for a minimum of ten minutes. The swatches were subsequently removed from the aqueous solution and air-dried overnight. The swatches were analyzed for antimicrobial activity using ASTM E2149-01 as described in Example 5 followed by an accelerated laundering test according to AATCC 61-1996, which simulates multiple laundering effects. The swatches were again analyzed for antimicrobial activity according to ASTM E2149-01 to determine the effect of laundering on the antimicrobial activity. Antimicrobial activity is reported as percent reduction in E. coli concentration.
structure (smiles),measurement,setting,value
"CCCCCCCCCCCCCCCCCC[N+](C)(C)CCC[Si](OC)(OC)OC.[Cl-] [Monomer, 3-(trimethoxysilyl) propyldimethyloctadecyl ammonium chloride]",MIC,E. coli [1],0.98 µg/mL
same,Log Kill,E. coli [2]; coconut shell activated carbon treated at 0.1 wt. % agent,None
same,Log Kill,E. coli [2]; coconut shell activated carbon treated at 0.25 wt. % agent,6.11
same,(Wt.) % CTC,[3]; activated carbon treated at 0.1 wt. % agent,77.6 (Wt.) %
same,(Wt.) % CTC,[3]; activated carbon treated at 0.25 wt. % agent,73.4 (Wt.) %
same,(Wt.) % CTC,[3]; activated carbon treated at 0.5 wt. % agent,75.4 (Wt.) %
same,"% Reduction, laundered",E. coli [4]; 0.010 % active in solution,0%
same,"% Reduction, unlaundered",E. coli [4]; 0.010 % active in solution,22%
same,"% Reduction, laundered",E. coli [4]; 0.025 % active in solution,0%
same,"% Reduction, unlaundered",E. coli [4]; 0.025 % active in solution,38%
same,"% Reduction, laundered",E. coli [4]; 0.050 % active in solution,98.86%
same,"% Reduction, unlaundered",E. coli [4]; 0.050 % active in solution,95%
same,"% Reduction, laundered",E. coli [4]; 0.075 % active in solution,99.19%
same,"% Reduction, unlaundered",E. coli [4]; 0.075 % active in solution,99.59%
same,"% Reduction, laundered",E. coli [4]; 0.100 % active in solution,99.91%
same,"% Reduction, unlaundered",E. coli [4]; 0.100 % active in solution,99.99%
same,"% Reduction, laundered",E. coli [4]; 0.25 % active in solution,99.99%
same,"% Reduction, unlaundered",E. coli [4]; 0.25 % active in solution,99.99%
